Assay results from patent publication US10662182B2, “Microbiocidal thiazole derivatives” (SYNGENTA PARTICIPATIONS AG, priority 2016, dated 2020).

What was measured:
[1] = tested on: Blumeria graminis f. Sp. Tritici (Erysiphe graminis f. Sp. Tritici); experiment: Blumeria graminis f. sp. tritici / wheat / leaf disc preventative (powdery mildew on wheat); type: in vivo; details: foliar, 200 ppm in the formulation, wheat leaf segments cv. Kanzler, compared to untreated checks, read-out: disease control
Description: Blumeria graminis f. Sp. Tritici (Erysiphe graminis f. Sp. Tritici)/Wheat/Leaf Disc Preventative (Powdery Mildew on Wheat) Wheat leaf segments cv. Kanzler are placed on agar in a multiwell plate (24-well format) and sprayed with the test compound formulated with DMSO and Tween20 and diluted in water. The leaf disks are inoculated by shaking powdery mildew infected plants above the test plates 1 day after application.

[2] = tested on: Botrvotinia fuckeliana (Botrvtis cinerea); experiment: Botryotinia fuckeliana / liquid culture (gray mould); type: cell-based; details: Botrytis cinerea, 200 ppm in the formulation, inhibition of growth determined photometrically, compared to untreated checks, read-out: disease control
Procedure: Botrvotinia fuckeliana (Botrvtis cinerea)/Liquid Culture (Gray Mould) Conidia of the fungus from cryogenic storage are directly mixed into nutrient broth (Vogels broth). After placing a (DMSO) solution of test compound into a microtiter plate (96-well format), the nutrient broth containing the fungal spores is added. The test plates are incubated at 24° C. and the inhibition of growth is determined photometrically 3-4 days after application.

Gaeumannomyces graminis = Gaeumannomyces graminis / liquid culture (take-all of cereals); type: cell-based; details: 200 ppm in the formulation, inhibition of growth determined photometrically, compared to untreated control, read-out: disease control
Procedure: (§1) Gaeumannomyces graminis/Liquid Culture (Take-All of Cereals) Mycelial fragments of the fungus from cryogenic storage were directly mixed into nutrient broth (PDB potato dextrose broth). After placing a (DMSO) solution of test compound into a microtiter plate (96-well format), the nutrient broth containing the fungal spores is added. The test plates are incubated at 24° C. and the inhibition of growth is determined photometrically 4-5 days after application.

[3] = tested on: Glomerella lacenarium (Colletotrichum lacenarium); experiment: Glomerella lagenarium / liquid culture (anthracnose); type: cell-based; details: 200 ppm in the formulation, inhibition of growth measured photometrically, compared to untreated checks, read-out: disease control
Procedure: as §1, with “Glomerella lacenarium (Colletotrichum lacenarium)/Liquid” for “Gaeumannomyces graminis/Liquid”, “(Anthracnose) Conidia” for “(Take-All of Cereals) Mycelial fragments”, “are” for “were”, “measured” for “determined”, “3 to 4” for “4-5”

[4] = tested on: Monocraphella nivalis (Microdochium nivale); experiment: Monographella nivalis / liquid culture (foot rot cereals); type: cell-based; details: 200 ppm in the formulation, inhibition of growth determined photometrically, compared to untreated checks, read-out: disease control
Procedure: as §1, with “Monocraphella nivalis (Microdochium nivale)/Liquid” for “Gaeumannomyces graminis/Liquid”, “(Foot Rot” for “(Take-All of”, “Conidia” for “Mycelial fragments”, “are” for “were”

[5] = tested on: Mycosphaerella arachidis (Cercospora arachidicola); experiment: Mycosphaerella arachidis / liquid culture (early leaf spot); type: cell-based; details: 200 ppm in the formulation, inhibition of growth determined photometrically, compared to untreated checks, read-out: disease control
Procedure: as §1, with “Mycosphaerella arachidis (Cercospora arachidicola)/Liquid” for “Gaeumannomyces graminis/Liquid”, “(Early Leaf Spot) Conidia” for “(Take-All of Cereals) Mycelial fragments”, “are” for “were”

[6] = tested on: Mycosphaerella raminicola (Septoria tritici); experiment: Mycosphaerella graminicola / liquid culture (Septoria blotch); type: cell-based; details: 200 ppm in the formulation, inhibition of growth determined photometrically, compared to untreated checks, read-out: disease control
Procedure: as §1, with “Mycosphaerella raminicola (Septoria tritici)/Liquid” for “Gaeumannomyces graminis/Liquid”, “(Septoria blotch) Conidia” for “(Take-All of Cereals) Mycelial fragments”, “are” for “were”, “4 to 5” for “4-5”

[7] = tested on: Puccinia recondita f. Sp. Tritici; experiment: Puccinia recondita f. sp. tritici / wheat / leaf disc preventative (brown rust); type: in vivo; details: foliar, 200 ppm in the formulation, wheat leaf segments cv. Kanzler, compared to untreated checks, read-out: disease control
Pyrenophora teres = Pyrenophora teres / barley / leaf disc preventative (net blotch); type: in vivo; details: foliar, 200 ppm of the formulation, barley leaf segments cv. Hasso, compared to untreated checks, read-out: disease control
Procedure: Pyrenophora teres/Barley/Leaf Disc Preventative (Net Blotch) Barley leaf segments cv. Hasso are placed on agar in a multiwell plate (24-well format) and sprayed with the test compound formulated with DMSO and Tween20 and diluted in water. The leaf segments are inoculated with a spore suspension of the fungus 2 days after application. The inoculated leaf segments are incubated at 20° C. and 65% rh under a light regime of 12 h light/12 h darkness in a climate cabinet and the activity of a compound is assessed as disease control compared to untreated when an appropriate level of disease damage appears in untreated check leaf segments (5 to 7 days after application).

[8] = tested on: Magnaporthe risea (Pyricularia oryzae); experiment: whole plant or invertebrate; type: in vivo; details: foliar, read-out: disease control

SMILES	pest or weed control at 200 ppm [1] [%]	inhibition of growth at 200 ppm [2] [%]	inhibition of growth at 200 ppm (Gaeumannomyces graminis) [%]	inhibition of growth at 200 ppm [3] [%]	inhibition of growth at 200 ppm [4] [%]	inhibition of growth at 200 ppm [5] [%]	inhibition of growth at 200 ppm [6] [%]	pest or weed control at 200 ppm [7] [%]	pest or weed control at 200 µg/mL (Pyrenophora teres) [%]	pest or weed control at 200 ppm [8] [%]	melting point [°C]
CC(NC(=O)c1nc(Nc2cc(F)cc(F)c2)sc1Br)C1CCCCC1 (stereo not shown) [Compound I.e.2, 5-bromo-N-(1-cyclohexylethyl)-2-(3,5-difluoroanilino)thiazole-4-carboxamide]	≥ 80	≥ 80	≥ 80	≥ 80	≥ 80	≥ 80	≥ 80	≥ 80	≥ 80	–	–
Cc1sc(Nc2cc(F)cc(F)c2)nc1C(=O)NC(C)(C#N)C(C)C (stereo not shown) [Compound I.n.3, N-(1-cyano-1,2-dimethyl-propyl)-2-(3,5-difluoroanilino)-5-methyl-thiazole-4-carboxamide]	≥ 80	≥ 80	≥ 80	≥ 80	≥ 80	≥ 80	≥ 80	≥ 80	–	≥ 80	–
CC12CCCC(NC(=O)c3nc(Nc4cc(F)cc(F)c4)sc3Br)C1CC2 (stereo not shown) [I.ah.2, 5-bromo-2-(3,5-difluoroanilino)-N-(6-methyl-2-bicyclo[4.2.0]octanyl)thiazole-4-carboxamide]	≥ 80	≥ 80	≥ 80	≥ 80	≥ 80	–	≥ 80	≥ 80	–	≥ 80	–
Cc1sc(Nc2cc(F)cc(F)c2)nc1C(=O)NC1CCCC2(C)CCC12 (stereo not shown) [I.ah.3, 2-(3,5-difluoroanilino)-5-methyl-N-(6-methyl-2-bicyclo[4.2.0]octanyl)thiazole-4-carboxamide]	–	≥ 80	≥ 80	≥ 80	≥ 80	≥ 80	≥ 80	–	–	–	–
Cc1sc(Nc2cc(F)cc(F)c2)nc1C(=O)NC1CC12CC2 (stereo not shown) [I.bb.3, 2-(3,5-difluoroanilino)-5-methyl-N-spiro[2.2]pentan-2-yl-thiazole-4-carboxamide]	≥ 80	–	–	≥ 80	≥ 80	≥ 80	≥ 80	≥ 80	–	≥ 80	145 to 175
Cc1sc(Nc2cc(F)nc(F)c2)nc1C(=O)NC1CC12CC2 (stereo not shown) [I.bb.43, 2-[(2,6-difluoro-4-pyridyl)amino]-5-methyl-N-spiro[2.2]pentan-2-yl-thiazole-4-carboxamide]	≥ 80	–	–	≥ 80	≥ 80	≥ 80	≥ 80	≥ 80	≥ 80	≥ 80	129 to 158
Cc1sc(Nc2cc(F)cc(F)c2)nc1C(=O)NC(C)C1CCCCC1 (stereo not shown) [I.e.3, N-(1-cyclohexylethyl)-2-(3,5-difluoroanilino)-5-methyl-thiazole-4-carboxamide]	≥ 80	–	≥ 80	≥ 80	≥ 80	≥ 80	≥ 80	≥ 80	≥ 80	≥ 80	–
O=C(NC1CCC12CCC2)c1nc(Nc2cc(F)cc(F)c2)sc1Br (stereo not shown) [I.r.2, 5-bromo-2-(3,5-difluoroanilino)-N-spiro[3.3]heptan-7-yl-thiazole-4-carboxamide]	≥ 80	≥ 80	≥ 80	≥ 80	≥ 80	≥ 80	≥ 80	≥ 80	≥ 80	≥ 80	–
Cc1sc(Nc2cc(F)cc(F)c2)nc1C(=O)NC1CCC12CCC2 (stereo not shown) [I.r.3, 2-(3,5-difluoroanilino)-5-methyl-N-spiro[3.3]heptan-7-yl-thiazole-4-carboxamide]	≥ 80	≥ 80	≥ 80	≥ 80	≥ 80	≥ 80	≥ 80	≥ 80	≥ 80	≥ 80	–
Cc1sc(Nc2cc(F)cc(F)c2)nc1C(=O)NC1CCC12CCCC2 (stereo not shown) [I.s.3, 2-(3,5-difluoroanilino)-5-methyl-N-spiro[3.4]octan-3-yl-thiazole-4-carboxamide]	≥ 80	–	≥ 80	≥ 80	≥ 80	≥ 80	≥ 80	≥ 80	≥ 80	≥ 80	–
Cc1sc(Nc2cc(F)nc(F)c2)nc1C(=O)NC1CCC12CCCC2 (stereo not shown) [I.s.43, 2-[(2,6-difluoro-4-pyridyl)amino]-5-methyl-N-spiro[3.4]octan-3-yl-thiazole-4-carboxamide]	≥ 80	≥ 80	–	≥ 80	≥ 80	≥ 80	≥ 80	≥ 80	≥ 80	≥ 80	156 to 162
CC1(C)C2CCCC2C1NC(=O)c1nc(Nc2cc(F)cc(F)c2)sc1Br (stereo not shown) [I.y.2, 5-bromo-2-(3,5-difluoroanilino)-N-(6,6-dimethyl-7-bicyclo[3.2.0]heptanyl)thiazole-4-carboxamide]	≥ 80	≥ 80	≥ 80	≥ 80	≥ 80	≥ 80	≥ 80	≥ 80	≥ 80	≥ 80	–
Cc1sc(Nc2cc(F)cc(F)c2)nc1C(=O)NC1C2CCCC2C1(C)C (stereo not shown) [I.y.3, 2-(3,5-difluoroanilino)-N-(6,6-dimethyl-7-bicyclo[3.2.0]heptanyl)-5-methyl-thiazole-4-carboxamide]	≥ 80	–	≥ 80	≥ 80	≥ 80	≥ 80	≥ 80	≥ 80	–	≥ 80	–
